“Also recorded” adds a separate entry of the source. Where two headings read alike, the source gives them in different places.
What was measured:
[1] = test system: KB-3-1 human cervical carcinoma cells; experiment: modulation of VBL toxicity (colony formation), KB-3-1; assay type: cell-based; conditions: 25 μM masoprocol, 10 days, 37° C.
Protocol: (§1) Drug-sensitive KB-3-1 cells and the drug resistant subline (KB-GRC-1) were obtained from Dr. Igor Roninson (University of Illinois, College of Medicine, Chicago, Ill.). Cells were maintained in Dulbecco's modified Eagle's medium supplemented with 10% fetal bovine serum and 2 mM glutamine. The KB-GRC-1 cells were maintained in medium supplemented with 6 ng/ml colchicine.
(§2) To test the modulation of VBL toxicity by masoprocol, cells which had been seeded at 200-300 cells/dish were incubated in media containing various concentrations of VBL in the absence or presence of 25 μM masoprocol. After an incubation period of 10 days at 37° C. the cells were fixed and stained, and the number of colonies per dish were counted and expressed as a percent of the number of colonies formed in control conditions. 1.

normal cells = experiment: toxicity to normal cells as opposed to cancer cells; assay type: cell-based
stability to oxidation = assay type: physicochemical; conditions: for example, by air
Excerpt: The pH of the formulation is important in assuring stability of NDGA or its analogue as well as assuring that the formulation is physiologically acceptable to the patient. […] Such oxidation can result in discoloration of the formulation rendering it unacceptable for pharmaceutical use. […] Therefore, it is preferred that if the formulation is to be exposed to oxidizing conditions the pH to be maintained below about 7 and preferably below about 6 in order to provide maximum stability for the compound against oxidation. However, if the oxidizing conditions can be avoided, for example, by storage of the formulation under an inert atmosphere such as nitrogen, a higher pH can be used. The pH of the formulation may be maintained through the use of toxicologically-acceptable buffers. Such buffers are well-known in the pharmaceutical formulation art, and include hydrochloric acid buffer, acid phthalate buffer, phosphate buffer and citric acid/sodium citrate buffer.

[2] = test system: GRC-1 multidrug resistant human cervical carcinoma cells; experiment: efflux of VBL, GRC-1; assay type: cell-based; conditions: 50 μM masoprocol
Protocol: (§3) A further test was conducted to show the effect of masoprocol on the efflux of VBL from cells. Cells were incubated with [^3 H]VBL with or without 50 μM masoprocol for 2 hours. The medium was then replaced with drug-free medium. After incubation for various times, the amount of VBL remaining in the cells was determined as described above. The data was presented in terms of the percentage of VBL remaining at various efflux times compared to VBL in cells with an efflux time of zero. In FIGS. 3a and 3b, efflux is expressed as pmol VBL. In FIGS. 3c and 3d, efflux is expressed as percentage of VBL levels at time zero.

SNB Glioblastoma cells = experiment: in vitro cytotoxicity anti tumor activity; assay type: cell-based; conditions: read-out: IC50
[3] = test system: MCF7/0 human breast adenocarcinoma cells; experiment: flow cytometry P-glycoprotein function assay of doxorubicin efflux, MCF7/0 (doxorubicin sensitive); assay type: cell-based
Protocol: The following tests were preformed to determine the effect of NDGA on efflux of doxorubicin (hereinafter sometimes referred to as DOX) for doxorubicin sensitive MCF7/0 and doxorubicin resistant MCF7/ADR human breast adenocarcinoma cells in vitro.
The cells were exposed to 50 μg/ml NDGA for 24 hrs prior to loading with DOX (doxorubicin) at 37° C. […] PBS. Flow analysis of cell efflux of DOX was collected over 30 minutes using the time parameter.
Procedure for P-Glycoprotein (PGP) Function Assay of Doxorubicin Efflux is shown hereunder.
1. […] Store at room temperature.
2. Doxorubicin (GFW=580) Make a solution of doxorubicin to contain 10 μg/ml. Store frozen at 0° C.
4. NDGA (MW=302.36) Make a solution of NDGA to contain 50 μg/ml. Store frozen at 0° C.
5. MCF7/0 (Doxorubicin sensitive) and MCF7/ADR (Doxorubicin resistant), human breast adenocarcinoma cell lines.
1. Make up 2×10^6 cells per ml in PBS. Expose 1 ml of cells to 50 μg of NDGA for 24 hrs at 37° C. prior to loading with Doxorubicin.
2. Add 1 ml of 10 μg/ml doxorubicin, mix and divide into two aliquots.
4. Incubate both tubes at 37° C. for 30 minutes.
5. Centrifuge the tubes at 37° C. for 5 minutes on a fast spin to pellet cells. Resuspend in 1 ml of buffer.
6. Run immediately on the flow cytometer. Excitation 488 nm, emission 560-600 nm. Collect forward and 90° side scatter and PMT4 linear scale. Collect 10,000-50,000 events and calculate the mean channel fluorescence (MCF) for PMT4.
7. Run both samples as close together as possible, and avoid prolonged exposure to room temperature.

[4] = test system: GRC-1 multidrug resistant human cervical carcinoma cells; experiment: initial influx of VBL, GRC-1; assay type: cell-based; conditions: 50 μM masoprocol added concurrently with VBL, 3 to 24 seconds; FIG. 4a
Protocol: A further test was conducted to show the effect of masoprocol on the initial influx of VBL. Cells were exposed to media containing [^3 H]VBL with and without 50 μM masoprocol. After incubation times ranging from 3 seconds to 24 seconds, the media was removed. The amount of VBL taken up by the cells was determined as described in A. The data was summarized from four replicate experiments. FIG. 4apresents the results for the GRC-1 cell line, and FIG. 4b for the KB-3-1 cell line.

mammals = conditions: in vivo; cited from earlier work
Lung (LX-1) cancer cells = experiment: in vitro cytotoxicity anti tumor activity; assay type: cell-based; conditions: 1 h; One Hour Pulse Treatment; read-out: IC50
human cancer patients = conditions: cited from earlier work
WI-38 Lung Fibroblasts = experiment: in vitro cytotoxicity, normal cells; assay type: cell-based; conditions: Homo sapiens, WI-38, 1 h; One Hour Pulse Treatment; read-out: IC50
CAK-1 Renal cancer cells = experiment: in vitro cytotoxicity anti tumor activity; assay type: cell-based; conditions: read-out: IC50
[5] = test system: GRC-1 multidrug resistant human cervical carcinoma cells; experiment: modulation of VBL toxicity (colony formation), GRC-1; assay type: cell-based; conditions: 25 μM masoprocol, 10 days, 37° C.
Protocol: as §1, §2

[6] = test system: Hs 68 Newborn Foreskin Fibroblasts; experiment: in vitro cytotoxicity, normal cells; assay type: cell-based; conditions: Homo sapiens, read-out: IC50
[7] = test system: KB-3-1 human cervical carcinoma cells; experiment: efflux of VBL, KB-3-1; assay type: cell-based; conditions: 50 μM masoprocol
Protocol: as §3

[8] = test system: human breast adenocarcinoma; conditions: cited from earlier work
[9] = Continuous Drug Exposure, observation at 70 hours

With C[C@H](Cc1ccc(O)c(O)c1)[C@@H](C)Cc1ccc(O)c(O)c1 [Masoprocol, meso-1,4-bis (3,4-dihydroxyphenyl)-2,3-dimethylbutane] the “effect on VBL cytotoxicity / colony formation” value [1] was “increase in the cytotoxicity of VBL; also recorded: increases the cytotoxic effect of VBL”, the “toxicity to normal cells versus doxorubicin” value (normal cells) was “less toxic than doxorubicin” and the susceptibility to oxidation (stability to oxidation) was “susceptible to oxidation”. For the same compound, the “modulation of VBL efflux” value [2] was “does not modulate VBL efflux”, the “VBL levels at efflux time zero” value ([2]; 2 hours, FIG. 3a) was “higher in masoprocol-treated cells” and the “percent of VBL retained at various efflux time points” value ([2]; FIG. 3c) was “not affected by masoprocol treatment”. The “modulation of VBL efflux” value ([2]; listed as masoprocol) was “does not influence the rate of efflux of VBL”, the IC50 (SNB Glioblastoma cells; 1 h, One Hour Pulse Treatment) was 312 µM and the IC50 (SNB Glioblastoma cells; [9]) was 0.08 µM. The activation at 50 µg/mL ([3]; Homo sapiens, MCF7, 24 h, read-out: % DOX increase w/NDGA) was 44.5%, the “DOX loading / retention / accumulation (in words)” value ([3]; sensitive cells) was “loading more DOX after NDGA treatment than controls or verapamil treated cells” and the “initial VBL uptake (influx)” value [4] was “substantial increase in initial VBL uptake; also recorded: effective modulator of initial VBL influx; also recorded: promotes the initial uptake of VBL”. For the same compound, the “retarding senescence or aging” value (mammals) was “having efficacy in retarding senescence or aging in mammals”, the IC50 (Lung (LX-1) cancer cells) was 18 µM and the “stimulation of tumor cell growth” value (human cancer patients; in some cases) was “in some cases caused stimulation of tumor cell growth”. For the same compound, the “effectiveness as anticancer agent” value (human cancer patients; ingested tea made from creosote bush or pure NDGA) was “neither NDGA nor the tea were effective anticancer agents”, the IC50 (WI-38 Lung Fibroblasts) was 159 µM and the IC50 (CAK-1 Renal cancer cells; 1 h, One Hour Pulse Treatment) was 211 µM. The IC50 (CAK-1 Renal cancer cells; [9]) was 53.4 µM, the “effect on VBL cytotoxicity / colony formation” value [5] was “increase in the cytotoxicity of VBL; also recorded: increases the cytotoxic effect of VBL” and the IC50 ([6]; Hs68, 1 h, One Hour Pulse Treatment) was 178 µM. For the same compound, the IC50 ([6]; Hs68, Continuous Drug Exposure, observation at 70 hours) was 18 µM, the “modulation of VBL efflux” value [7] was “does not modulate VBL efflux” and the “VBL levels at efflux time zero” value ([7]; 2 hours, FIG. 3b) was “higher in masoprocol-treated cells”. The “percent of VBL retained at various efflux time points” value ([7]; FIG. 3d) was “not affected by masoprocol treatment”, the “modulation of VBL efflux” value ([7]; listed as masoprocol) was “does not influence the rate of efflux of VBL” and the “effectiveness against human breast adenocarcinoma” value [8] was “particularly effective”.

Source: patent publication US5541232A, “Treatment of multidrug resistant diseases” (Chemex Pharmaceuticals, Inc., priority 1994, dated 1996)
